The source of these data is PubChem BioAssay (NCI).

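In this assay, cells in 96-well plates receive the compound at five concentrations for 48 hours. Endpoints are linearly interpolated between the surrounding concentrations. GI50 is the concentration that inhibits growth by half. The concentration for full growth arrest is given as TGI.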

Some test systems named below: HT29 colon; SK-OV-3 ovarian; SF-295 CNS; OVCAR-3 ovarian; DU-145 prostate; HOP-62 NSCLC; U251 CNS; MDA-MB-231 breast; SK-MEL-28 melanoma; HS 578T breast.
What all share (assay): growth of human tumour cells (NCI), 48 h

Take `COc1cc(C2C(Cl)C(=O)N2c2c(C)n(C)n(-c3ccccc3)c2=O)ccc1O` (stereo not given): the TGI with HT29 colon is 36 µM; with SK-OV-3 ovarian it was 80.2 µM; in the test with SF-295 CNS it was 50 µM; with OVCAR-3 ovarian, greater than 100 µM; with DU-145 prostate it was greater than 100 µM; in the test on HOP-62 NSCLC, 73.2 µM. The results for the TGI with U251 CNS and in the test on MDA-MB-231 breast were 38 µM and 49.1 µM, respectively.
As for `O=c1c(-c2ccccc2)c(SCCO)n(-c2ccccc2)c(=S)n1-c1ccccc1`, the TGI in the test with HT29 colon, in the test on SK-OV-3 ovarian, in the test on SF-295 CNS, in the test on SK-MEL-28 melanoma, with OVCAR-3 ovarian and with DU-145 prostate was greater than 100 µM throughout. Besides, the TGI with HOP-62 NSCLC, with HS 578T breast and in the test on U251 CNS was greater than 100 µM throughout.
On to `COc1ccc(Nc2ccc3ccccc3c2-c2c(O)ccc3ccccc23)cc1`, for which the TGI in the test on HT29 colon stood at 29.6 µM; in the test on SF-295 CNS, 34.6 µM; with SK-MEL-28 melanoma, 31.7 µM; with OVCAR-3 ovarian, 27.7 µM; in the test on DU-145 prostate, 33.8 µM; in the test with HOP-62 NSCLC, 25.1 µM. Also, the TGI with U251 CNS came out at 56 µM; with MDA-MB-231 breast it was 45.7 µM.
With `COc1cc(C2C3=C(COC3=O)Oc3cc4c(cc32)OCO4)cc(OC)c1O` (stereo not given), the TGI in the test with HT29 colon is 0.984 µM; in the test with SK-OV-3 ovarian it was 1.48 µM; with SF-295 CNS it was 15.4 µM; with SK-MEL-28 melanoma it was 89.8 µM; with OVCAR-3 ovarian it was 19.8 µM; in the test with DU-145 prostate, 0.391 µM. Besides, the TGI is 15.2 µM in the test with HOP-62 NSCLC, 14 µM in the test with U251 CNS and greater than 24.9 µM in the test on MDA-MB-231 breast.
Take `Nc1nc(Cl)cc(NC23CC4CC(CC(C4)C2)C3)n1`: the TGI in the test on SK-OV-3 ovarian, in the test with SF-295 CNS, with SK-MEL-28 melanoma, in the test with OVCAR-3 ovarian, in the test with DU-145 prostate and in the test on HOP-62 NSCLC was greater than 100 µM in each case. Further, the TGI in the test on U251 CNS and in the test on MDA-MB-231 breast was greater than 100 µM throughout.
As to `COc1cc2cc(C(=O)N3CC(COS(C)(=O)=O)c4ccc(O)cc43)[nH]c2c(OC)c1OC` (stereo not given), the TGI with SF-295 CNS was less than 0.0001 µM; in the test with OVCAR-3 ovarian it was 0.000616 µM; in the test with DU-145 prostate it was 0.000845 µM; with HOP-62 NSCLC, 0.00198 µM; with HS 578T breast it was 0.000872 µM; with U251 CNS, 0.137 µM. The compound also showed a TGI with MDA-MB-231 breast of 0.000328 µM.
For the compound `Cc1nc(N)c(N2CCN(CN)CC2)c(=O)[nH]1`, the TGI in the test with HT29 colon, in the test on SF-295 CNS, with SK-MEL-28 melanoma, with OVCAR-3 ovarian, with DU-145 prostate and in the test on HOP-62 NSCLC was greater than 100 µM throughout. The TGI in the test with HS 578T breast, with U251 CNS and with MDA-MB-231 breast was greater than 100 µM each time.
For `CCN=C1C=CC(=C(c2ccc(N(CC)CC)cc2)c2ccc(N(CC)CC)cc2)c2ccccc21`, the GI50 in the test on HT29 colon was 33 nM; in the test with SK-OV-3 ovarian, 82.3 nM; with DU-145 prostate it was 49.2 nM; with HOP-62 NSCLC, 159 nM; in the test on HS 578T breast it was 40.8 nM; in the test on U251 CNS it was 34.8 nM. Also, the TGI in the test with HT29 colon is 1.01 µM; in the test on SK-OV-3 ovarian, 0.601 µM; with DU-145 prostate, 1.37 µM; in the test with HOP-62 NSCLC, 0.846 µM; with HS 578T breast it was 0.533 µM; in the test on U251 CNS, 1.11 µM.
Take `CC(C)(C)OC(=O)NCC(CNC(=O)OC(C)(C)C)c1nc(C(N)=O)cs1`: the TGI in the test on HT29 colon, in the test on SK-OV-3 ovarian, in the test on SF-295 CNS, in the test with SK-MEL-28 melanoma, in the test on OVCAR-3 ovarian and in the test with HOP-62 NSCLC was greater than 100 µM throughout. For the same compound, the TGI in the test with HS 578T breast, with U251 CNS and in the test with MDA-MB-231 breast was greater than 100 µM throughout.
As to `Cc1ccccc1-c1nc2c(C(=O)NCCN(C)C)cccc2[nH]1`, the TGI in the test on HT29 colon was greater than 100 µM; in the test with SK-OV-3 ovarian it was greater than 100 µM; with SF-295 CNS, greater than 100 µM; in the test with SK-MEL-28 melanoma, greater than 100 µM; in the test with OVCAR-3 ovarian, greater than 100 µM; in the test with HOP-62 NSCLC it was greater than 87.3 µM. For the same compound, in the test with U251 CNS, the TGI is greater than 100 µM.
For the compound `N#Cc1cc2c(n(C3OC(CO)C(O)C(O)C3O)c1=S)CCCCCC2` (stereo not given), the TGI with HT29 colon, with SF-295 CNS, in the test on SK-MEL-28 melanoma, with OVCAR-3 ovarian, in the test on DU-145 prostate and in the test on HOP-62 NSCLC was greater than 100 µM throughout. Besides, the TGI in the test with HS 578T breast, in the test on U251 CNS and in the test with MDA-MB-231 breast was greater than 100 µM throughout.
With `Cc1ccc(S(=O)(=O)Nc2nnc(S(N)(=O)=O)s2)cc1`, the TGI with SK-OV-3 ovarian, with SF-295 CNS, in the test with SK-MEL-28 melanoma, in the test on OVCAR-3 ovarian, in the test with DU-145 prostate and with HOP-62 NSCLC was greater than 100 µM in each case. The TGI in the test on HS 578T breast, in the test on U251 CNS and in the test with MDA-MB-231 breast was greater than 100 µM each time.
Regarding `NNC(=O)C1(NC(=O)c2ccccc2)C(c2ccccc2)C(c2ccccc2)=NN1c1ccccc1` (stereo not given), the TGI in the test with SK-OV-3 ovarian, in the test on SF-295 CNS, in the test on SK-MEL-28 melanoma, in the test on OVCAR-3 ovarian, with DU-145 prostate and with HOP-62 NSCLC was greater than 100 µM throughout. Also, the TGI with U251 CNS and with MDA-MB-231 breast was greater than 100 µM each time.
Regarding `CN=C(/N=c1\ssc(=NC)n1C)N(C)C`, the TGI in the test with HT29 colon, with SK-OV-3 ovarian, in the test on SF-295 CNS, in the test with SK-MEL-28 melanoma, in the test with OVCAR-3 ovarian and in the test with U251 CNS was greater than 100 µM throughout.
Regarding `C=CCC1C(O[Si](C)(C)C(C)(C)C)C(CO[Si](C)(C)C(C)(C)C)OC1n1ccc(=O)[nH]c1=O` (stereo not given), the TGI with HT29 colon worked out at 2.8 µM; in the test with SF-295 CNS, 3.59 µM; with SK-MEL-28 melanoma, 3.05 µM; in the test on OVCAR-3 ovarian, 3.34 µM; with DU-145 prostate, 4.54 µM; in the test with U251 CNS, 5.66 µM. In the test with MDA-MB-231 breast, this compound yielded a TGI of 4.52 µM.
